Earlier results as cited in patent publication US9023853B2, “Janus kinase 2 (JAK2) inhibitor for the treatment of lupus” (Cephalon, Inc., priority 2010, dated 2015).
Like-named read-outs stand apart in the source and are kept apart here.

Settings: cited from earlier work

| SMILES | effectiveness in rheumatoid arthritis (doses of 4-10 mg once daily) | effectiveness in rheumatoid arthritis (doses of 5-30 mg twice per day) |
| --- | --- | --- |
| CCS(=O)(=O)N1CC(CC#N)(n2cc(-c3ncnc4[nH]ccc34)cn2)C1 [INCB028050] | effective | – |
| CC1CCN(C(=O)CC#N)CC1N(C)c1ncnc2[nH]ccc12 (stereo in doubt) [tasocitinib] | – | effective |
